Assay [1] concerns EpCAM. Put plainly: EpCAM gene expression by qPCR in MTΔECad cells. To be noted: qPCR normalized to GAPDH. The format is cell-based, mouse. The protocol: (§1) For the stimulation of MTΔECad cells the following concentrations were used: PPS (5 μg/ml), Indomethacin (50 μM), en Pioglitazone (10 μM).
(§2) Untreated cell lines were employed as negative controls. As read-outs of adipogenesis, several approaches were tested: • 1. Oil red O staining by histochemistry. • 2. Nile Red staining by immuno-fluorescence (IF) • 3. RTqPCR (gene expression analysis) • Adiponectin (adipocyte marker) • EpCam (marker for epithelial cells) FIGS. 15a-d show stimulation schemes; FIGS. 15a-b according to prior art, and FIGS. 15c-15d according to the present invention.
(§3) Inventors studied the effect of treatment of MTΔECad cells with the different compounds and combinations on EpCAM expression as a marker for epithelial cells and Adiponectin expression as a marker for adipocytes.
(§4) Steps performed when measuring gene expression using real-time PCR.
(§5) RNA was first isolated and characterized for quantity and integrity. During a two-step reaction, cDNA was first synthesized and then used as a PCR template. The housekeeping gene GAPDH was used for normalizing the results. A normalization factor has been used for calculating each individual sample. Dividing the fluorescent data by its normalization factor produced the normalized data, which was followed by statistical analysis.

Assay [2] relates to Adiponectin. Description: Adiponectin gene expression by qPCR in MTΔECad cells. Conditions: qPCR normalized to GAPDH. The class given is cell-based, mouse. The protocol:
as §1, §2, §3, §4, §5

Take `COc1ccc2c(c1)c(CC(=O)O)c(C)n2C(=O)c1ccc(Cl)cc1` [Indomethacin]: the EpCAM gene expression entry in assay [1] is on record as “clearly stimulated EpCAM expression”. Further, the adiponectin gene expression entry in assay [2] is listed as “obviously stimulated adiponectin gene expression”.

On to Pentosan polysulphate [PPS], for which the EpCAM gene expression entry in assay [1] is listed as “no significant effect”. In assay [2], the adiponectin gene expression result was “no effect”.
